This is an account of results in patent US9938261B2, “Heterocyclic compounds and methods of use thereof” (AMBIT BIOSCIENCES CORPORATION, priority 2011, dated 2018).

The structures appear in SMILES notation. Like-named read-outs stand apart in the source and are kept apart here.

The target of one test is CSF1R (Homo sapiens, UniProt P07333). The experiment in a line: HEK293 CSF1R phosphorylation MSD assay. Type of test: cell-based. Also noted: expressed in transfected cells; host or cells: HEK293. The note with it: read-out: HEK293 pCSF1R M-CSF MSD:IC50. The essentials: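 HEK293 cells expressing CSF1R-FKBP were pretreated 2 h at 37° C with 9 half-log concentrations of compound (0.5% DMSO final), then stimulated 5 min with 50 ng/mL human M-CSF. Lysates captured on biotin-FK506 plates; phosphotyrosine detected by MSD electrochemiluminescence. IC50 versus DMSO, averaged from duplicate plates.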

The target of a further test is T1, FLT3 (Homo sapiens, UniProt P36888).
T1 construct: made in house
T1 sequence (P36888 27-993): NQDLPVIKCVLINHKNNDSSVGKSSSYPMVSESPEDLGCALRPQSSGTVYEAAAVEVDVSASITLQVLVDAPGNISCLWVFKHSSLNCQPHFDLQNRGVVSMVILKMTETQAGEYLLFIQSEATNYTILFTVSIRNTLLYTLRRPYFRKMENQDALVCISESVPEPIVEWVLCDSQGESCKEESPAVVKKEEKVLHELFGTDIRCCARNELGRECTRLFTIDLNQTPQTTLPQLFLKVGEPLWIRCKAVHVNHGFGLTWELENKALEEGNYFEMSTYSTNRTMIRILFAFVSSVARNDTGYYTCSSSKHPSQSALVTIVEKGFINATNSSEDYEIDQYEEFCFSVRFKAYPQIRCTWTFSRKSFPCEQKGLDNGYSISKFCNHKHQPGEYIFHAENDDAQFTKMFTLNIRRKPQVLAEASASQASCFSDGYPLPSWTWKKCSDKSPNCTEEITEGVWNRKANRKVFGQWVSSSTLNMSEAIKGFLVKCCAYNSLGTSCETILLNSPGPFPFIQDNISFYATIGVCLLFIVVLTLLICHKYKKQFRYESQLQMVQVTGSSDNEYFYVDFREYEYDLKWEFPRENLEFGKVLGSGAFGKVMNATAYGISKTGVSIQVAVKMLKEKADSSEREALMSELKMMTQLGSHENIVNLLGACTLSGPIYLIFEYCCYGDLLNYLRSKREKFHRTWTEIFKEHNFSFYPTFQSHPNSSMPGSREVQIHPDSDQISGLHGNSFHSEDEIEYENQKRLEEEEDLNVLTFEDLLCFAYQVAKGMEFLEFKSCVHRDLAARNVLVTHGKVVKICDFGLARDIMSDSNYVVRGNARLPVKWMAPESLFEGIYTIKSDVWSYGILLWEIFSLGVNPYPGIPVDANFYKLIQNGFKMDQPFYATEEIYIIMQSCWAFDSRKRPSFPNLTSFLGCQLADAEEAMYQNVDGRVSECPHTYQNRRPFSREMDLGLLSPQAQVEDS
Put plainly: Competition binding assay, FLT3 Kd. The essentials: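 Kd values came from eleven-point threefold dilutions of compound, measured by qPCR of kinase eluted from affinity-ligand beads after 1 h equilibrium binding at room temperature. Kinase was either T7-phage fused or HEK-293-expressed with a DNA tag.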

[1] abbreviates: 2 h compound, human M-CSF 50 ng/mL for 5 min.
Where [2] appears, read: HEK293 cells, M-CSF stimulated CSF1R phosphorylation, MSD.

CSF1R, sequence (P07333 20-972): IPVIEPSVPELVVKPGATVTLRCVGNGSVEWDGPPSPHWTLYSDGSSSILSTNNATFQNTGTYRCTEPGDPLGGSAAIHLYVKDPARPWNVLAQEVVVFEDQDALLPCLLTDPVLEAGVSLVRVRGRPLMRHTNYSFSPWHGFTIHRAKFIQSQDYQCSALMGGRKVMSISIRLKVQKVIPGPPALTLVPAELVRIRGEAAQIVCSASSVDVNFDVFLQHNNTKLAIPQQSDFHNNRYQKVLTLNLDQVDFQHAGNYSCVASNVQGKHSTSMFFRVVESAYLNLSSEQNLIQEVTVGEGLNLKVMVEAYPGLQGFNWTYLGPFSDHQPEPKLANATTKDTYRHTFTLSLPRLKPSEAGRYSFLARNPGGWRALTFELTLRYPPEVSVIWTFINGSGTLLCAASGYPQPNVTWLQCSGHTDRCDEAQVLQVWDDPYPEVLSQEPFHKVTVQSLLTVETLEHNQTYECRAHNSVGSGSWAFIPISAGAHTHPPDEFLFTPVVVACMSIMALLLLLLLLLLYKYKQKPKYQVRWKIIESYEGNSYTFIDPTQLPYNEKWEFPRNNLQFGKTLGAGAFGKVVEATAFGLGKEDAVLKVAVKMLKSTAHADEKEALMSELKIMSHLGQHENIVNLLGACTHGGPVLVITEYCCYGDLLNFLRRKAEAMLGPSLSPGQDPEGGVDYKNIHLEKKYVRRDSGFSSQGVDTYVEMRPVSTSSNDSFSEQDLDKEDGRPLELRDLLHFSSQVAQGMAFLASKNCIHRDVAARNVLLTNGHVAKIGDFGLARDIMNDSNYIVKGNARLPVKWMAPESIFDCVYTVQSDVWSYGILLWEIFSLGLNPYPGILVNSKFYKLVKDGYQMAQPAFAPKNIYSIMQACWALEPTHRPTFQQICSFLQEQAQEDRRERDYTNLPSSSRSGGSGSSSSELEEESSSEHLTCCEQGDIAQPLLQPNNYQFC

Broadly, the IC50 is the concentration at which inhibition is half-maximal. One may read the Kd as the concentration at which binding is half-saturated. For `CC(=O)NCc1cnc2c(c1)ncn2Cc1ccc2nc(N[C@@H]3CCCC[C@H]3O)sc2c1` [Example 99, N-((3-((2-(((1R,2R)-2-hydroxycyclohexyl)amino)benzo[d]thiazol-6-yl)methyl)-3H-imidazo[4,5-b]pyridin-6-yl)methyl)acetamide], the IC50 at CSF1R (setting [1]) fell in the range of 200 to 500 nM. The same compound returned a Kd at FLT3 of 1000 to 5000 nM.
Take `O[C@@H]1CCCC[C@H]1Nc1nc2ccc(Cn3cnc4cc(Br)ccc43)cc2s1` [Example 100, (1R,2R)-2-((6-((5-bromo-1H-benzo[d]imidazol-1-yl)methyl)benzo[d]thiazol-2-yl)amino)cyclohexanol]: at CSF1R (setting [1]), the IC50 fell in the range of 50 to 200 nM. Besides, the Kd at FLT3 was 1000 to 5000 nM.
Take `CC(=O)Nc1cn(Cc2ccc3nc(N[C@@H]4CCCC[C@H]4O)sc3c2)cn1` [Example 101, N-(1-((2-(((1R,2R)-2-hydroxycyclohexyl)amino)benzo[d]thiazol-6-yl)methyl)-1H-imidazol-4-yl)acetamide]: on CSF1R (setting [1]), the IC50 lay within 50 to 200 nM. Moreover, the Kd on FLT3 is 200 to 1000 nM.
The corresponding values for `CCc1cnc2c(c1)ncn2Cc1ccc2nc(N[C@@H]3CCCC[C@H]3O)sc2c1` [Example 102, (1R,2R)-2-((6-((6-ethyl-3H-imidazo[4,5-b]pyridin-3-yl)methyl)benzo[d]thiazol-2-yl)amino)cyclohexanol] are not above 50 nM and 200 to 1000 nM.
As to `CS(=O)(=O)c1ccc2ncn(Cc3ccc4nc(N[C@@H]5CCCC[C@H]5O)sc4c3)c2n1` [Example 106, (1R,2R)-2-((6-((5-(methylsulfonyl)-3H-imidazo[4,5-b]pyridin-3-yl)methyl)benzo[d]thiazol-2-yl)amino)cyclohexanol], the IC50 on CSF1R (setting [2]) is more than 500 nM. On FLT3 (competition binding), the Kd fell in the range of 200 to 1000 nM.
`O[C@@H]1CCCC[C@H]1Nc1nc2ccc(Cn3cnc4ccc(Br)cc43)cc2s1` [Example 107, (1R,2R)-2-((6-((6-bromo-1H-benzo[d]imidazol-1-yl)methyl)benzo[d]thiazol-2-yl)amino)cyclohexanol]: the IC50 on CSF1R (setting [2]) lay within 50 to 200 nM. This compound yielded a Kd at FLT3 (competition binding) of 1000 to 5000 nM.
As to `N#CCOc1ccc2c(c1)ncn2Cc1ccc2nc(N[C@@H]3CCCC[C@H]3O)sc2c1` [Example 196, 2-((1-((2-(((1R,2R)-2-hydroxycyclohexyl)amino)benzo[d]thiazol-6-yl)methyl)-1H-benzo[d]imidazol-5-yl)oxy)acetonitrile], the half-maximal inhibitory concentration (IC50) at CSF1R (setting [2]) was not above 50 nM. Also, the Kd on FLT3 (competition binding) was in the range of 200 to 1000 nM.
The matching figures for `Fc1cnc2c(c1)ncn2Cc1ccc2nc(N[C@@H]3CCCC[C@H]3Cl)sc2c1` [Example 198, N-((1R,2R)-2-chlorocyclohexyl)-6-((6-fluoro-3H-imidazo[4,5-b]pyridin-3-yl)methyl)benzo[d]thiazol-2-amine]: 200 to 500 nM and 1000 to 5000 nM.
On to `OC1CCN(c2ccn3c(Cc4ccc5nc(N[C@@H]6CCCC[C@H]6O)sc5c4)cnc3c2)CC1` [Example 199, 1-(3-((2-(((1R,2R)-2-hydroxycyclohexyl)amino)benzo[d]thiazol-6-yl)methyl)imidazo[1,2-a]pyridin-7-yl)piperidin-4-ol], for which, on CSF1R (setting [2]), the IC50 was 200 to 500 nM. Also, the dissociation constant Kd at FLT3 (competition binding) was more than 5000 nM.
Take `CC(=O)c1ccn2c(Cc3ccc4nc(N[C@@H]5CCCC[C@H]5O)sc4c3)cnc2c1` [Example 200, 1-(3-((2-(((1R,2R)-2-hydroxycyclohexyl)amino)benzo[d]thiazol-6-yl)methyl)imidazo[1,2-a]pyridin-7-yl)ethanone]: at CSF1R (setting [2]), the IC50 was 50 to 200 nM. The dissociation constant Kd at FLT3 (competition binding) is more than 5000 nM.
As for `CC(O)c1ccn2c(Cc3ccc4nc(N[C@@H]5CCCC[C@H]5O)sc4c3)cnc2c1` (stereo partly drawn) [Example 201, (1R,2R)-2-((6-((7-(1-hydroxyethyl)imidazo[1,2-a]pyridin-3-yl)methyl)benzo[d]thiazol-2-yl)amino)cyclohexanol], the IC50 on CSF1R (setting [2]) fell in the range of 200 to 500 nM. Moreover, at FLT3 (competition binding), the Kd is 1000 to 5000 nM.
The matching figures for `CC(=NO)c1ccn2c(Cc3ccc4nc(N[C@@H]5CCCC[C@H]5O)sc4c3)cnc2c1` [Example 202, 1-(3-((2-(((1R,2R)-2-hydroxycyclohexyl)amino)benzo[d]thiazol-6-yl)methyl)imidazo[1,2-a]pyridin-7-yl)ethanone oxime]: 50 to 200 nM and 1000 to 5000 nM.
Consider `O[C@@H]1CCCC[C@H]1Nc1nc2ccc(Cn3cnc4cc(Br)cc(F)c43)cc2s1` [Example 203, (1R,2R)-2-((6-((5-bromo-7-fluoro-1H-benzo[d]imidazol-1-yl)methyl)benzo[d]thiazol-2-yl)amino)cyclohexanol], for which the half-inhibitory concentration (IC50) on CSF1R (setting [2]) fell in the range of 50 to 200 nM. The Kd on FLT3 (competition binding) was in the range of 200 to 1000 nM.
The corresponding values for `CON=C(C)c1ccn2c(Cc3ccc4nc(N[C@@H]5CCCC[C@H]5O)sc4c3)cnc2c1` [Example 204, 1-(3-((2-(((1R,2R)-2-hydroxycyclohexyl)amino)benzo[d]thiazol-6-yl)methyl)imidazo[1,2-a]pyridin-7-yl)ethanone O-methyl oxime] are 50 to 200 nM and 1000 to 5000 nM.
For `O[C@@H]1CCCC[C@H]1Nc1nc2ccc(Cc3cnc4[nH]c5ccccc5n34)cc2s1` [Example 205, (1R,2R)-2-((6-((9H-benzo[d]imidazo[1,2-a]imidazol-3-yl)methyl)benzo[d]thiazol-2-yl)amino)cyclohexanol], the IC50 at CSF1R (setting [2]) is more than 500 nM. Moreover, the Kd at FLT3 (competition binding) was in the range of 200 to 1000 nM.
With `N#Cc1cc(F)c2c(c1)ncn2Cc1ccc2nc(N[C@@H]3CCCC[C@H]3O)sc2c1` [Example 206, 7-fluoro-1-((2-(((1R,2R)-2-hydroxycyclohexyl)amino)benzo[d]thiazol-6-yl)methyl)-1H-benzo[d]imidazole-5-carbonitrile], the IC50 on CSF1R (setting [2]) lay in the range of 50 to 200 nM. In addition, the Kd on FLT3 (competition binding) is 200 to 1000 nM.
As for `C=Cc1cc(F)c2c(c1)ncn2Cc1ccc2nc(N[C@@H]3CCCC[C@H]3O)sc2c1` [Example 207, (1R,2R)-2-((6-((7-fluoro-5-vinyl-1H-benzo[d]imidazol-1-yl)methyl)benzo[d]thiazol-2-yl)amino)cyclohexanol], on CSF1R (setting [2]), the IC50 lay in the range of 50 to 200 nM. On FLT3 (competition binding), the Kd was not above 200 nM.
As for `O[C@@H]1CCCC[C@H]1Nc1nc2ccc(Cn3cnc4cc(C5=CCOCC5)cc(F)c43)cc2s1` [Example 208, (1R,2R)-2-((6-((5-(3,6-dihydro-2H-pyran-4-yl)-7-fluoro-1H-benzo[d]imidazol-1-yl)methyl)benzo[d]thiazol-2-yl)amino)cyclohexanol], on CSF1R (setting [2]), the IC50 lay within 50 to 200 nM. The compound further registered a Kd at FLT3 (competition binding) not above 200 nM.
The matching figures for `O[C@@H]1CCCC[C@H]1Nc1nc2ccc(Cn3cnc4cc(N5CCOCC5)ccc43)cc2s1` [Example 209, (1R,2R)-2-((6-((5-morpholino-1H-benzo[d]imidazol-1-yl)methyl)benzo[d]thiazol-2-yl)amino)cyclohexanol]: 50 to 200 nM and 200 to 1000 nM.
The corresponding values for `O=C1CCCCN1c1ccc2c(c1)ncn2Cc1ccc2nc(N[C@@H]3CCCC[C@H]3O)sc2c1` [Example 210, 1-(1-((2-(((1R,2R)-2-hydroxycyclohexyl)amino)benzo[d]thiazol-6-yl)methyl)-1H-benzo[d]imidazol-5-yl)piperidin-2-one] are 200 to 500 nM and more than 5000 nM.
Turning to `O[C@@H]1CCCC[C@H]1Nc1nc2ccc(Cn3cnc4cc(-c5cc[nH]n5)ccc43)cc2s1` [Example 211, (1R,2R)-2-((6-((5-(1H-pyrazol-3-yl)-1H-benzo[d]imidazol-1-yl)methyl)benzo[d]thiazol-2-yl)amino)cyclohexanol], at CSF1R (setting [2]), the IC50 was not above 50 nM. The Kd at FLT3 (competition binding) was not above 200 nM.
Turning to `O[C@@H]1CCCC[C@H]1Nc1nc2ccc(Cn3cnc4cc(C(F)(F)F)cnc43)cc2s1` [Example 212, (1R,2R)-2-((6-((6-(trifluoromethyl)-3H-imidazo[4,5-b]pyridin-3-yl)methyl)benzo[d]thiazol-2-yl)amino)cyclohexanol], on CSF1R (setting [2]), the half-maximal inhibitory concentration (IC50) was in the range of 50 to 200 nM. Further, the dissociation constant Kd on FLT3 (competition binding) is 200 to 1000 nM.
As for `O[C@@H]1CCCC[C@H]1Nc1nc2ccc(Cc3cnc4cc(-n5ccnc5)ccn34)cc2s1` [Example 214, (1R,2R)-2-((6-((7-(1H-imidazol-1-yl)imidazo[1,2-a]pyridin-3-yl)methyl)benzo[d]thiazol-2-yl)amino)cyclohexanol], the IC50 on CSF1R (setting [2]) was not above 50 nM. The same compound returned a Kd on FLT3 (competition binding) of more than 5000 nM.
